Measurements as given in the NIST ThermoML archive (doi:10.1016/j.jct.2015.01.005).
Numbers after ± are expanded uncertainties.

Experiment: molar heat capacity at saturation pressure
Settings: Crystal 2, Small (less than 1 g) adiabatic calorimetry

O[C@@H]1[C@@H](O)[C@@H]2OC[C@@H](O2)[C@H]1O [1,6-anhydro-β-D-glucopyranose]
Settings | molar heat capacity [J/K/mol]
5.26 K | 0.1543 ± 0.018
5.62 K | 0.1754 ± 0.018
5.93 K | 0.2008 ± 0.018
6.31 K | 0.2396 ± 0.019
6.75 K | 0.2955 ± 0.019
7.19 K | 0.3641 ± 0.02
7.65 K | 0.4465 ± 0.021
8.1 K | 0.5445 ± 0.023
8.57 K | 0.6608 ± 0.025
9.04 K | 0.7922 ± 0.027
9.51 K | 0.9407 ± 0.029
9.99 K | 1.112 ± 0.031
10.53 K | 1.33 ± 0.035
11.15 K | 1.603 ± 0.038
11.77 K | 1.9 ± 0.042
12.4 K | 2.236 ± 0.047
13.05 K | 2.607 ± 0.051
13.7 K | 3.009 ± 0.056
14.35 K | 3.44 ± 0.06
15.01 K | 3.908 ± 0.064
15.78 K | 4.473 ± 0.069
16.65 K | 5.151 ± 0.074
17.53 K | 5.868 ± 0.079
18.42 K | 6.609 ± 0.082
19.31 K | 7.372 ± 0.086
20.21 K | 8.174 ± 0.091
21.39 K | 9.247 ± 0.098
22.86 K | 10.63 ± 0.11
24.35 K | 12.04 ± 0.11
25.84 K | 13.46 ± 0.12
27.08 K | 14.64 ± 0.12
28.51 K | 16.01 ± 0.13
30.04 K | 17.43 ± 0.15
31.72 K | 19.01 ± 0.16
33.56 K | 20.71 ± 0.17
35.41 K | 22.39 ± 0.18
37.27 K | 24 ± 0.19
39.13 K | 25.62 ± 0.19
41.1 K | 27.29 ± 0.2
43.17 K | 29.02 ± 0.21
45.24 K | 30.72 ± 0.22
47.32 K | 32.39 ± 0.23
49.4 K | 34.01 ± 0.24
51.49 K | 35.61 ± 0.24
53.58 K | 37.22 ± 0.25
55.67 K | 38.75 ± 0.26
57.78 K | 40.27 ± 0.27
59.89 K | 41.77 ± 0.28
62 K | 43.24 ± 0.28
64.11 K | 44.7 ± 0.29
66.22 K | 46.15 ± 0.3
68.34 K | 47.58 ± 0.31
70.46 K | 49 ± 0.32
72.68 K | 50.47 ± 0.32
75.01 K | 51.98 ± 0.33
77.35 K | 53.49 ± 0.33
78.72 K | 54.4 ± 0.34
79.68 K | 54.97 ± 0.34
80.68 K | 55.63 ± 0.35
80.76 K | 55.68 ± 0.35
82.03 K | 56.47 ± 0.36
82.6 K | 56.8 ± 0.36
82.68 K | 56.86 ± 0.36
84.52 K | 57.99 ± 0.36
84.6 K | 58.06 ± 0.36
86.44 K | 59.2 ± 0.37
86.52 K | 59.23 ± 0.37
88.37 K | 60.4 ± 0.37
88.45 K | 60.45 ± 0.37
90.29 K | 61.6 ± 0.4
90.37 K | 61.65 ± 0.4
92.23 K | 62.79 ± 0.41
92.3 K | 62.82 ± 0.41
94.16 K | 63.97 ± 0.41
94.23 K | 64.01 ± 0.41
96.1 K | 65.16 ± 0.42
96.17 K | 65.21 ± 0.42
98.04 K | 66.35 ± 0.43
98.11 K | 66.41 ± 0.43
99.98 K | 67.6 ± 0.43
100.05 K | 67.69 ± 0.43
101.92 K | 69.02 ± 0.44
101.99 K | 69.12 ± 0.44
103.87 K | 70.46 ± 0.44
103.93 K | 70.5 ± 0.44
105.82 K | 71.75 ± 0.45
105.88 K | 71.76 ± 0.45
107.77 K | 72.94 ± 0.45
107.83 K | 72.96 ± 0.45
109.73 K | 74.07 ± 0.46
109.79 K | 74.13 ± 0.46
111.69 K | 75.2 ± 0.46
111.75 K | 75.25 ± 0.46
113.65 K | 76.35 ± 0.47
113.71 K | 76.37 ± 0.47
115.61 K | 77.45 ± 0.48
115.67 K | 77.49 ± 0.48
117.58 K | 78.55 ± 0.48
117.64 K | 78.6 ± 0.48
119.55 K | 79.66 ± 0.49
119.61 K | 79.69 ± 0.49
121.58 K | 80.81 ± 0.49
123.55 K | 81.91 ± 0.5
125.53 K | 83.02 ± 0.5
127.51 K | 84.1 ± 0.51
129.49 K | 85.22 ± 0.51
131.47 K | 86.32 ± 0.52
133.45 K | 87.41 ± 0.52
135.44 K | 88.53 ± 0.53
137.43 K | 89.66 ± 0.53
139.41 K | 90.74 ± 0.54
141.41 K | 91.84 ± 0.55
143.4 K | 92.95 ± 0.55
145.4 K | 94.05 ± 0.56
147.39 K | 95.15 ± 0.56
149.39 K | 96.28 ± 0.57
151.39 K | 97.39 ± 0.57
153.39 K | 98.5 ± 0.57
155.4 K | 99.63 ± 0.58
157.4 K | 100.7 ± 0.6
159.41 K | 101.8 ± 0.6
161.42 K | 103 ± 0.6
163.43 K | 104.1 ± 0.6
165.44 K | 105.2 ± 0.6
167.46 K | 106.4 ± 0.6
169.47 K | 107.5 ± 0.6
171.49 K | 108.6 ± 0.6
173.51 K | 109.8 ± 0.6
175.53 K | 110.9 ± 0.6
177.54 K | 112 ± 0.6
179.56 K | 113.2 ± 0.7
181.59 K | 114.4 ± 0.7
183.61 K | 115.5 ± 0.7
185.63 K | 116.7 ± 0.7
187.66 K | 117.8 ± 0.7
189.68 K | 119 ± 0.7
191.71 K | 120.2 ± 0.7
193.74 K | 121.4 ± 0.7
195.77 K | 122.5 ± 0.7
197.79 K | 123.7 ± 0.7
199.82 K | 124.9 ± 0.7
201.86 K | 126.1 ± 0.7
203.89 K | 127.3 ± 0.7
205.92 K | 128.5 ± 0.7
207.96 K | 129.7 ± 0.7
209.99 K | 130.9 ± 0.7
212.02 K | 132.1 ± 0.7
214.06 K | 133.3 ± 0.7
216.09 K | 134.5 ± 0.7
218.13 K | 135.7 ± 0.7
220.17 K | 137 ± 0.7
222.21 K | 138.2 ± 0.8
224.25 K | 139.4 ± 0.8
226.29 K | 140.7 ± 0.8
228.33 K | 141.9 ± 0.8
230.36 K | 143.2 ± 0.8
232.4 K | 144.5 ± 0.8
234.45 K | 145.8 ± 0.8
236.49 K | 147 ± 0.8
238.53 K | 148.3 ± 0.8
240.57 K | 149.6 ± 0.8
242.62 K | 150.8 ± 0.8
244.66 K | 152.1 ± 0.8
246.7 K | 153.4 ± 0.8
248.74 K | 154.7 ± 0.8
250.79 K | 156.1 ± 0.8
252.83 K | 157.3 ± 0.8
254.87 K | 158.6 ± 0.8
256.92 K | 160 ± 0.8
258.96 K | 161.3 ± 0.8
260.23 K | 162.2 ± 0.9
261.01 K | 162.6 ± 0.9
262.15 K | 163.5 ± 0.9
263.05 K | 163.9 ± 0.9
264.2 K | 164.7 ± 0.9
265.1 K | 165.3 ± 0.9
266.25 K | 166 ± 0.9
267.14 K | 166.6 ± 0.9
268.29 K | 167.4 ± 0.9
269.19 K | 167.9 ± 0.9
270.34 K | 168.8 ± 0.9
271.23 K | 169.2 ± 0.9
272.38 K | 170.1 ± 0.9
273.28 K | 170.7 ± 0.9
274.43 K | 171.3 ± 0.9
275.32 K | 172 ± 0.9
276.48 K | 172.8 ± 0.9
277.37 K | 173.3 ± 0.9
278.52 K | 174.2 ± 0.9
279.42 K | 174.8 ± 0.9
280.57 K | 175.4 ± 0.9
281.47 K | 176.1 ± 0.9
282.61 K | 176.8 ± 1
283.51 K | 177.3 ± 1
284.66 K | 178.2 ± 1
285.56 K | 178.8 ± 1
286.7 K | 179.6 ± 1
287.61 K | 180.1 ± 1
288.75 K | 180.9 ± 1
289.65 K | 181.5 ± 1
290.79 K | 182.4 ± 1
291.7 K | 182.9 ± 1
292.84 K | 183.6 ± 1
293.74 K | 184.3 ± 1
294.88 K | 185.1 ± 1
295.79 K | 185.6 ± 1
296.92 K | 186.3 ± 1
297.83 K | 187 ± 1
298.97 K | 187.9 ± 1
299.88 K | 188.4 ± 1
301.01 K | 189.4 ± 1
301.92 K | 189.8 ± 1.1
303.05 K | 190.6 ± 1.1
303.97 K | 191.3 ± 1.1
305.1 K | 192.1 ± 1.1
306.02 K | 192.6 ± 1.1
307.14 K | 193.5 ± 1.1
308.06 K | 194.1 ± 1.1
309.19 K | 195.1 ± 1.1
310.11 K | 195.5 ± 1.1
311.24 K | 196.5 ± 1.1
312.16 K | 197 ± 1.1
313.28 K | 197.9 ± 1.1
314.21 K | 198.4 ± 1.1
315.33 K | 199.3 ± 1.1
316.26 K | 199.9 ± 1.1
317.38 K | 200.9 ± 1.1
318.31 K | 201.4 ± 1.1
319.43 K | 202.3 ± 1.1
320.36 K | 202.9 ± 1.1
321.48 K | 203.7 ± 1.1
322.42 K | 204.4 ± 1.1
323.53 K | 205.4 ± 1.1
324.47 K | 206 ± 1.1
325.58 K | 206.9 ± 1.1
326.52 K | 207.5 ± 1.1
327.64 K | 208.4 ± 1.1
328.57 K | 209.1 ± 1.1
329.69 K | 210.1 ± 1.1
330.63 K | 210.6 ± 1.1
331.74 K | 211.7 ± 1.1
332.69 K | 212.3 ± 1.1
333.8 K | 213.3 ± 1.2
334.74 K | 214 ± 1.2
335.85 K | 215.1 ± 1.2
336.8 K | 215.7 ± 1.2
337.91 K | 216.8 ± 1.2
338.86 K | 217.5 ± 1.2
339.97 K | 218.6 ± 1.2
340.91 K | 219.3 ± 1.2
342.02 K | 220.5 ± 1.2
342.97 K | 221.2 ± 1.2
344.08 K | 222.5 ± 1.2
345.03 K | 223.2 ± 1.2
346.14 K | 224.6 ± 1.2
347.09 K | 225.4 ± 1.2
348.19 K | 226.9 ± 1.2
349.14 K | 227.7 ± 1.2
350.25 K | 229.3 ± 1.2
351.21 K | 230.1 ± 1.2
352.31 K | 231.9 ± 1.2
353.27 K | 232.8 ± 1.2
354.37 K | 234.7 ± 1.2
355.33 K | 235.6 ± 1.2
356.43 K | 237.6 ± 1.3
357.38 K | 238.7 ± 1.3
358.48 K | 240.7 ± 1.3
359.44 K | 242.1 ± 1.3
360.54 K | 244.1 ± 1.3
361.49 K | 245.9 ± 1.3
362.59 K | 248.2 ± 1.3
363.55 K | 249.9 ± 1.3
364.64 K | 252.8 ± 1.3
365.6 K | 255.1 ± 1.3
366.69 K | 258.7 ± 1.3
367.64 K | 261.8 ± 1.3
368.73 K | 265.9 ± 1.4
